Experimental data from patent US20240209028A1, “CNP COMPOUNDS” (priority 2022, published 2024).
Starred links: 1 amine or outer side, 2 acyl side, 3 side chain; linkers in the order of their positions; H or OH if unused. Positions of bridges follow the written chain, without caps; N, C: chain ends. Non-standard residues stand in square brackets, D forms with d. Residues, ends and D or L forms follow the SMILES beside them. *: point of attachment. C18 diacid = O=C(O)CCCCCCCCCCCCCCCCC(=O)*; γGlu = O=C(O)[C@H](CCC(=O)[*:2])N[*:1]; AEEA = NCCOCCOCC(=O)O

Biological target: T1, human natriuretic peptide receptor 2 (hNPR2) (Homo sapiens, UniProt P20594)
T1 construct: expressed in transfected cells; host or cells: HEK293 (ATCC CRL-1573), clone 35, co-transfected with pGloSensor-42F
T1 sequence (P20594 23-1047): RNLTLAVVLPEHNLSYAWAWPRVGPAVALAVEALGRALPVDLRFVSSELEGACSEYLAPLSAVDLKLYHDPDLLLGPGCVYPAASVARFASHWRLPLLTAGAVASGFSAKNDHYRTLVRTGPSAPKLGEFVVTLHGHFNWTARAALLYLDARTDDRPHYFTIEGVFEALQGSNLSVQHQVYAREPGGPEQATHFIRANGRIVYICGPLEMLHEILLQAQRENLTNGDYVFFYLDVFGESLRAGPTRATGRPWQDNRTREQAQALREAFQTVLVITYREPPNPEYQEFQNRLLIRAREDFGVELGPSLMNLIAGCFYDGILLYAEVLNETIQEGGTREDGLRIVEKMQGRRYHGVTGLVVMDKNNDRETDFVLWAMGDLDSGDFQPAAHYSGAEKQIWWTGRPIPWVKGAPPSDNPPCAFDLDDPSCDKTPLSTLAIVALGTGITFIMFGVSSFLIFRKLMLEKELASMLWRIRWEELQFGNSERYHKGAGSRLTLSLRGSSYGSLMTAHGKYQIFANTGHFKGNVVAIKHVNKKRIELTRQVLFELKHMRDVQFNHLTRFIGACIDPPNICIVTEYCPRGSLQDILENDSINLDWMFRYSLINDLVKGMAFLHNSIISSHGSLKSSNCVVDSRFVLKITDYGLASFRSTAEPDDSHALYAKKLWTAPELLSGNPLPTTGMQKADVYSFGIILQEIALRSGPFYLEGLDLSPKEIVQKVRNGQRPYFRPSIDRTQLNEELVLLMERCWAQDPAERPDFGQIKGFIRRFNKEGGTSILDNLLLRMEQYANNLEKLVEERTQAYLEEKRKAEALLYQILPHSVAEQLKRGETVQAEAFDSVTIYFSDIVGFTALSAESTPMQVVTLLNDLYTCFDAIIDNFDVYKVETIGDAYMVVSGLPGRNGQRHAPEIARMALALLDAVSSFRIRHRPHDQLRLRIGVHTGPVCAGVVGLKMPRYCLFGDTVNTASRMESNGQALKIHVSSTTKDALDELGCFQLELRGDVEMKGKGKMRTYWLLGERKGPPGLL
Test: In vitro hNPR2 activity assay (cGMP GloSensor reporter, HEK293)
Format: cell-based
Conditions: potency relative to CNP22 (0065)
Summary of the method: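 Potency is the EC50 from a four-parameter logistic fit, also expressed relative to the in-plate CNP22 control (×100), with at least two replicates. Compounds (ten concentrations, […], HSA-free diluent with 1% OVA, 0.01% Tween20) were incubated 30 min at 37 °C on HEK293 cells co-expressing hNPR2 and a GloSensor cGMP luciferase. Luminescence detected with Bright-Glo.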

| Compound | hNPR2 0% HSA. [EC50% rel CNP] |
| --- | --- |
| CC[C@H](C)[C@@H]1NC(=O)[C@H](CCCNC(=N)N)NC(=O)[C@H](CC(=O)O)NC(=O)[C@H](CC(C)C)NC(=O)[C@@H]2CCCN2C(=O)[C@H](CC(C)C)NC(=O)CNC(=O)[C@H](Cc2ccccc2)NC(=O)[C@@H](NC(=O)CNC(=O)[C@H](CCCCN)NC(=O)[C@H](CO)NC(=O)[C@H](CC(C)C)NC(=O)CNC(=O)[C@H](CCCCN)NC(=O)[C@H](CCCCN)NC(=O)[C@H](CCC(N)=O)NC(=O)[C@H](C)NC(=O)CNC(=O)[C@H](Cc2c[nH]cn2)NC(=O)[C@H](CCC(=O)O)NC(=O)COCCOCCNC(=O)COCCOCCNC(=O)COCCOCCNC(=O)CC[C@H](NC(=O)CCCCCCCCCCCCCCCCC(=O)O)C(=O)O)CSSC[C@@H](C(=O)O)NC(=O)CNC(=O)[C@H](CC(C)C)NC(=O)CNC(=O)[C@H](CO)NC(=O)[C@H](CC(C)C)NC(=O)[C@H](CO)NC(=O)CNC1=O [compound 1353] ({C18 diacid-γGlu-AEEA-AEEA-AEEA}-EHGAQKKGLSKGCFGLPLDRIGSLSGLGC-OH; disulfide 13-29; C-terminus assumed) | 9.0% |
| CC[C@H](C)[C@@H]1NC(=O)[C@H](CCCNC(=N)N)NC(=O)[C@H](CC(=O)O)NC(=O)[C@H](CC(C)C)NC(=O)[C@@H]2CCCN2C(=O)[C@H](CC(C)C)NC(=O)CNC(=O)[C@H](Cc2ccccc2)NC(=O)[C@@H](NC(=O)CNC(=O)[C@H](CCC(N)=O)NC(=O)[C@H](CO)NC(=O)[C@H](CC(C)C)NC(=O)CNC(=O)[C@H](CCCCN)NC(=O)[C@H](CCCCN)NC(=O)[C@H](CC(N)=O)NC(=O)[C@H](C)NC(=O)CNC(=O)[C@H](CCCCN)NC(=O)[C@H](Cc2ccc(O)cc2)NC(=O)[C@H](CCCCN)NC(=O)[C@H](CCCNC(=N)N)NC(=O)[C@H](C)NC(=O)COCCOCCNC(=O)COCCOCCNC(=O)COCCOCCNC(=O)COCCOCCNC(=O)CC[C@H](NC(=O)CC[C@H](NC(=O)CC[C@H](NC(=O)CC[C@H](NC(=O)CC[C@H](NC(=O)CCCCCCCCCCCCCCCCC(=O)O)C(=O)O)C(=O)O)C(=O)O)C(=O)O)C(=O)O)CSSC[C@@H](C(=O)O)NC(=O)CNC(=O)[C@H](CC(C)C)NC(=O)CNC(=O)[C@H](CO)NC(=O)[C@H](CC(C)C)NC(=O)[C@H](CO)NC(=O)CNC1=O [compound 1464] ({C18 diacid-γGlu-γGlu-γGlu-γGlu-γGlu-AEEA-AEEA-AEEA-AEEA}-ARKYKGANKKGLSQGCFGLPLDRIGSLSGLGC-OH; disulfide 16-32; C-terminus assumed) | 48.8% |
| CC[C@H](C)[C@@H]1NC(=O)[C@H](CCCNC(=N)N)NC(=O)[C@H](CC(=O)O)NC(=O)[C@H](CC(C)C)NC(=O)[C@@H]2CCCN2C(=O)[C@H](CC(C)C)NC(=O)CNC(=O)[C@H](Cc2ccccc2)NC(=O)[C@@H](NC(=O)CNC(=O)[C@H](Cc2c[nH]cn2)NC(=O)[C@H](CO)NC(=O)CNC(=O)CNC(=O)[C@H](CCCCN)NC(=O)[C@H](CCCCN)NC(=O)[C@H](CCC(N)=O)NC(=O)[C@H](C)NC(=O)CNC(=O)[C@H](CCC(=O)O)NC(=O)[C@H](Cc2ccc(O)cc2)NC(=O)COCCOCCNC(=O)COCCOCCNC(=O)COCCOCCNC(=O)COCCOCCNC(=O)CC[C@H](NC(=O)CCCCCCCCCCCCCCCCC(=O)O)C(=O)O)CSSC[C@@H](C(=O)O)NC(=O)CNC(=O)[C@H](CC(C)C)NC(=O)CNC(=O)[C@H](CO)NC(=O)[C@H](CC(C)C)NC(=O)[C@H](CO)NC(=O)CNC1=O [compound 1431] ({C18 diacid-γGlu-AEEA-AEEA-AEEA-AEEA}-YEGAQKKGGSHGCFGLPLDRIGSLSGLGC-OH; disulfide 13-29; C-terminus assumed) | 14.3% |
| CC[C@H](C)[C@@H]1NC(=O)[C@H](CCCNC(=N)N)NC(=O)[C@H](CC(=O)O)NC(=O)[C@H](CC(C)C)NC(=O)[C@@H]2CCCN2C(=O)[C@H](CC(C)C)NC(=O)CNC(=O)[C@H](Cc2ccccc2)NC(=O)[C@@H](NC(=O)CNC(=O)[C@H](CO)NC(=O)[C@H](CO)NC(=O)[C@H](CC(C)C)NC(=O)CNC(=O)[C@H](CCCCN)NC(=O)[C@H](CCC(=O)O)NC(=O)[C@H](CCC(N)=O)NC(=O)[C@H](C)NC(=O)CNC(=O)[C@H](CCC(=O)O)NC(=O)[C@H](Cc2ccc(O)cc2)NC(=O)COCCOCCNC(=O)COCCOCCNC(=O)CC[C@H](NC(=O)CCCCCCCCCCCCCCCCC(=O)O)C(=O)O)CSSC[C@@H](C(=O)O)NC(=O)CNC(=O)[C@H](CC(C)C)NC(=O)CNC(=O)[C@H](CO)NC(=O)[C@H](CC(C)C)NC(=O)[C@H](CO)NC(=O)CNC1=O [compound 1228] ({C18 diacid-γGlu-AEEA-AEEA}-YEGAQEKGLSSGCFGLPLDRIGSLSGLGC-OH; disulfide 13-29) | 12.3% |
| CC[C@H](C)[C@@H]1NC(=O)[C@H](CCCNC(=N)N)NC(=O)[C@H](CC(=O)O)NC(=O)[C@H](CC(C)C)NC(=O)[C@@H]2CCCN2C(=O)[C@H](CC(C)C)NC(=O)CNC(=O)[C@H](Cc2ccccc2)NC(=O)[C@@H](NC(=O)CNC(=O)[C@H](CO)NC(=O)[C@H](CO)NC(=O)[C@H](CC(C)C)NC(=O)CNC(=O)[C@H](CCCCN)NC(=O)[C@H](CCCCN)NC(=O)[C@H](CCC(N)=O)NC(=O)[C@H](C)NC(=O)CNC(=O)[C@H](CCCCN)NC(=O)[C@H](Cc2ccc(O)cc2)NC(=O)CNC(=O)CNC(=O)CNC(=O)CC[C@H](NC(=O)CC[C@H](NC(=O)CC[C@H](NC(=O)CC[C@H](NC(=O)CCCCCCCCCCCCCCCCC(=O)O)C(=O)O)C(=O)O)C(=O)O)C(=O)O)CSSC[C@@H](C(=O)O)NC(=O)CNC(=O)[C@H](CC(C)C)NC(=O)CNC(=O)[C@H](CO)NC(=O)[C@H](CC(C)C)NC(=O)[C@H](CO)NC(=O)CNC1=O [compound 1387] ({C18 diacid-γGlu-γGlu-γGlu-γGlu}-GGGYKGAQKKGLSSGCFGLPLDRIGSLSGLGC-OH; disulfide 16-32; C-terminus assumed) | 20.6% |
| CC[C@H](C)[C@@H]1NC(=O)[C@H](CCCNC(=N)N)NC(=O)[C@H](CC(=O)O)NC(=O)[C@H](CC(C)C)NC(=O)[C@@H]2CCCN2C(=O)[C@H](CC(C)C)NC(=O)CNC(=O)[C@H](Cc2ccccc2)NC(=O)[C@@H](NC(=O)CNC(=O)[C@H](CCC(N)=O)NC(=O)[C@H](CO)NC(=O)[C@H](CC(C)C)NC(=O)CNC(=O)[C@H](CCCCN)NC(=O)[C@H](CCCCN)NC(=O)[C@H](CCC(N)=O)NC(=O)[C@H](C)NC(=O)CNC(=O)[C@H](CCCCN)NC(=O)[C@H](Cc2ccc(O)cc2)NC(=O)COCCOCCNC(=O)COCCOCCNC(=O)COCCOCCNC(=O)COCCOCCNC(=O)[C@H](CCC(=O)O)NC(=O)[C@H](CCC(=O)O)NC(=O)[C@H](CCC(=O)O)NC(=O)CCCCCCCCCCCCCCCCC(=O)O)CSSC[C@@H](C(=O)O)NC(=O)CNC(=O)[C@H](CC(C)C)NC(=O)CNC(=O)[C@H](CO)NC(=O)[C@H](CC(C)C)NC(=O)[C@H](CO)NC(=O)CNC1=O [compound 1481] ({C18 diacid}-EEE[AEEA][AEEA][AEEA][AEEA]YKGAQKKGLSQGCFGLPLDRIGSLSGLGC-OH; disulfide 20-36) | 35.1% |
| CC[C@H](C)[C@@H]1NC(=O)[C@H](CCCNC(=N)N)NC(=O)[C@H](CC(=O)O)NC(=O)[C@H](CC(C)C)NC(=O)[C@@H]2CCCN2C(=O)[C@H](CC(C)C)NC(=O)CNC(=O)[C@H](Cc2ccccc2)NC(=O)[C@@H](NC(=O)CNC(=O)[C@H](CO)NC(=O)[C@H](CO)NC(=O)[C@H](CC(C)C)NC(=O)CNC(=O)[C@@H](NC(=O)[C@H](Cc2c[nH]cn2)NC(=O)[C@H](CCC(N)=O)NC(=O)[C@H](C)NC(=O)CNC(=O)[C@H](CCCCN)NC(=O)[C@H](Cc2ccc(O)cc2)NC(=O)COCCOCCNC(=O)COCCOCCNC(=O)CC[C@H](NC(=O)CCCCCCCCCCCCCCCCC(=O)O)C(=O)O)[C@@H](C)O)CSSC[C@@H](C(=O)O)NC(=O)CNC(=O)[C@H](CC(C)C)NC(=O)CNC(=O)[C@H](CO)NC(=O)[C@H](CC(C)C)NC(=O)[C@H](CO)NC(=O)CNC1=O [compound 1305] ({C18 diacid-γGlu-AEEA-AEEA}-YKGAQHTGLSSGCFGLPLDRIGSLSGLGC-OH; disulfide 13-29) | 8.7% |
| {C18 diacid}-EGEGEGEGE[AEEA][AEEA]ARKYKGAQKKGLSQGCFGLPLDRIGSLSGLGC-OH (disulfide 27-43) [compound 1476] | 48.4% |
